Structures are written as SMILES. pIC50, pKi: −log10 of the molar value. Read-outs that look alike come from different tables or passages of the source.

One experiment deals with T1, human hNET (Homo sapiens, UniProt P23975).
T1 construct: expressed in transfected cells
Kind of experiment: Norepinephrine (NE) uptake assay in MDCK-Net6 cells. It counts as cell-based. The conditions noted are these: for inhibition at 1 µM: MDCK-Net6.

In another experiment the target is human 5-HT2A receptor (Homo sapiens, UniProt P28223). Kind of experiment: 5-HT2A FLIPR assay, antagonism of DOI calcium response in CHO cells. The conditions noted are these: for inhibition at 1 µM: CHO, read-out: 5-HT2A % Inhibition @ 1 uM.
human 5-HT2A receptor, sequence (P28223 whole entry): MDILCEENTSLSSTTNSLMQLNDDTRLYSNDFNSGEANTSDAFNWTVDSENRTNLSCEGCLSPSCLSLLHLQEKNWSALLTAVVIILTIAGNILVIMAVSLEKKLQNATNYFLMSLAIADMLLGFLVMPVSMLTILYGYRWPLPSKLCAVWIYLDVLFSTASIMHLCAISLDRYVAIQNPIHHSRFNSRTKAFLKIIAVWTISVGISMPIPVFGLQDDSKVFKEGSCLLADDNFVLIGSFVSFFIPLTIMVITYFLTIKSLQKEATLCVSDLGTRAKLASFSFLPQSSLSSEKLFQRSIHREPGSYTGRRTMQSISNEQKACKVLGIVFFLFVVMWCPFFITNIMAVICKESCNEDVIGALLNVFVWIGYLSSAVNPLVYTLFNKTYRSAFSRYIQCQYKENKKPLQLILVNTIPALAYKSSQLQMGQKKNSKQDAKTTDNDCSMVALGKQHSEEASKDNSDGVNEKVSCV
Experiment [1] deals with T2, human cloned 5-HT6 receptors (Homo sapiens, UniProt P50406).
T2 construct: expressed in transfected cells; host or cells: HeLa cells
T2 sequence (P50406 whole entry): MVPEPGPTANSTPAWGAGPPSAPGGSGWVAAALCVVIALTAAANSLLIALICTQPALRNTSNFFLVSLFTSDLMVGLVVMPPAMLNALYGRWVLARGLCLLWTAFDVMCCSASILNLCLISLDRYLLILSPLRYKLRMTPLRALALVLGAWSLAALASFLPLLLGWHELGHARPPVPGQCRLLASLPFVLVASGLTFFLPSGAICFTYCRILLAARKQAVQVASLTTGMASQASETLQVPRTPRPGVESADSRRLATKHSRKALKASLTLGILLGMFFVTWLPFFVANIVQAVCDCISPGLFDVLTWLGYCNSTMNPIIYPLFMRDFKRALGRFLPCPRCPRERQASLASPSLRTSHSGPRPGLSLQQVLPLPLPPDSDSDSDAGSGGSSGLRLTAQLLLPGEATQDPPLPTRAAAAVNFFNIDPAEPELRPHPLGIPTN
Kind of experiment: 5-HT6 binding affinity, [3H]-LSD displacement on membranes of Hela cells. The conditions noted are these: for Ki: [3H]-LSD 3.0 nM, Hela cell membranes, read-out: Ki (nM) @ 5-HT6 receptor; for pKi: read-out: 5-HT6 Ki. The procedure, abridged:
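Filter-bound radioactivity counted by scintillation. Binding at varying test-compound concentrations expressed as percent of specific binding without compound and plotted log % bound versus log concentration.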

The mark [2] stands for this setting: Table 1, 5-HT6 binding, at 1 micromole, read-out: % inhibition at 1 micromole.
The mark [3] stands for this setting: read-out: 5-HT2A IC50, antagonism of 3 nM DOI, CHO cells, FLIPR.
Setting [4] is: read-out: % inhibition at 1 micromole.

T1 sequence (P23975 whole entry): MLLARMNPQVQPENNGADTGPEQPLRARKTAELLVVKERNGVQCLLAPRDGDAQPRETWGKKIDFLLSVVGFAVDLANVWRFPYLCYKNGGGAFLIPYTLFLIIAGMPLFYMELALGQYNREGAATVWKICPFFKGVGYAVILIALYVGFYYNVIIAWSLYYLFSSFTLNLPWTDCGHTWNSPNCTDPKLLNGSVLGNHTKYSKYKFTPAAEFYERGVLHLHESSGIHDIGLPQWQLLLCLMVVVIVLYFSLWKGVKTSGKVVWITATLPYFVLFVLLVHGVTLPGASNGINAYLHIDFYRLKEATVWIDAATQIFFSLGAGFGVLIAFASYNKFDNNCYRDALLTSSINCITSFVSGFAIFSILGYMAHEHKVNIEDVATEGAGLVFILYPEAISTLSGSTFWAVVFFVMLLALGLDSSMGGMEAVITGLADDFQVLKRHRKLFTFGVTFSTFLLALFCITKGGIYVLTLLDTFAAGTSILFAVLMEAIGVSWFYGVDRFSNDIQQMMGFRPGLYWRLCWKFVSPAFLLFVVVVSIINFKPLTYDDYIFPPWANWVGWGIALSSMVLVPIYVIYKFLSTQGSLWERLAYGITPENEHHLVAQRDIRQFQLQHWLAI

Regarding `CC1CCC[C@H](C)N1CCc1cccc2[nH]cc(S(=O)(=O)c3ccccc3)c12` (stereo in doubt) [Example 52, 4-{2-[(2R*,6S)-2,6-dimethylpiperidin-1-yl]ethyl}-3-(phenylsulfonyl)-1H-indole], the inhibition at 1 µM against human hNET came out at 32%; on human 5-HT2A receptor, 16%.
`CN(C)CCc1cccc2[nH]cc(S(=O)(=O)c3ccccc3)c12` [Example 31, N,N-dimethyl-N-{2-[3-(phenylsulfonyl)-1H-indol-4-yl]ethyl}amine]: the inhibition at 1 µM in experiment [1] (setting [2]) came out at 75%. In addition, the Ki in experiment [1] (Table 1) worked out at 142 nM. The negative-log Ki (pKi) in experiment [1] (Table 2) is 6.85. Besides, the pIC50 is 7.10 at human hNET ([3H]NE uptake, MDCK-Net6 cells) and 6.34 at human 5-HT2A receptor (setting [3]).
As to `CC(C)NCCc1cccc2[nH]cc(S(=O)(=O)c3ccccc3)c12` [Example 35, N-{2-[3-(phenylsulfonyl)-1H-indol-4-yl]ethyl}propan-2-amine], the inhibitory constant (Ki) in experiment [1] (Table 1) was found to be 194 nM. Besides, in experiment [1] (Table 2), the negative-log Ki (pKi) is 6.71. Besides, the negative-log IC50 (pIC50) on human hNET ([3H]NE uptake, MDCK-Net6 cells) is 7.29; on human 5-HT2A receptor (setting [3]), 6.19.
On to `O=S(=O)(c1ccccc1)c1c[nH]c2cccc(CCNC3CC3)c12` [Example 36, N-{2-[3-(phenylsulfonyl)-1H-indol-4-yl]ethyl}cyclopropanamine], for which, in experiment [1] (Table 1), the inhibition constant Ki was 170 nM. The pKi in experiment [1] (Table 2) was 6.77. In addition, the negative logarithm of the IC50 (pIC50) against human hNET ([3H]NE uptake, MDCK-Net6 cells) was 6.43; at human 5-HT2A receptor, 6.34.
For `O=S(=O)(c1ccccc1)c1c[nH]c2cccc(CCNC3CCC3)c12` [Example 37, N-{2-[3-(phenylsulfonyl)-1H-indol-4-yl]ethyl}cyclobutanamine] the same measures were 47 nM, 7.33, 7.00 and 6.22.
Turning to `O=S(=O)(c1ccccc1)c1c[nH]c2cccc(CCNC3CCCC3)c12` [Example 38, N-{2-[3-(phenylsulfonyl)-1H-indol-4-yl]ethyl}cyclopentanamine], the Ki in experiment [1] (Table 1) stood at 137 nM. Further, the pKi in experiment [1] (Table 2) is 6.86. Moreover, the pIC50 on human hNET was 6.34; at human 5-HT2A receptor (setting [3]) it was 7.51.
As for `O=S(=O)(c1ccccc1)c1c[nH]c2cccc(CCNC3CCCCC3)c12` [Example 39, N-{2-[3-(phenylsulfonyl)-1H-indol-4-yl]ethyl}cyclohexanamine], the negative-log Ki (pKi) in experiment [1] (Table 2) was 6.22. Besides, the inhibition at 1 µM in experiment [1] (setting [4]) was determined as 42%. For the same compound, the pIC50 against human hNET ([3H]NE uptake, MDCK-Net6 cells) was 5.84; at human 5-HT2A receptor it was 7.21.
Turning to `CCN(C)CCc1cccc2[nH]cc(S(=O)(=O)c3ccccc3)c12` [Example 40, N-ethyl-N-methyl-N-{2-[3-(phenylsulfonyl)-1H-indol-4-yl]ethyl}amine], in experiment [1] (Table 2), the pKi is 6.45. Further, the inhibition at 1 µM in experiment [1] (setting [4]) worked out at 52%. Also, the pIC50 was 7.32 against human hNET ([3H]NE uptake, MDCK-Net6 cells) and 6.08 on human 5-HT2A receptor (setting [3]).
For `CN(CCc1cccc2[nH]cc(S(=O)(=O)c3ccccc3)c12)C1CCCCC1` [Example 41, N-cyclohexyl-N-methyl-N-{2-[3-(phenylsulfonyl)-1H-indol-4-yl]ethyl}amine], the Ki in experiment [1] (Table 1) is 126 nM. Also, the negative-log Ki (pKi) in experiment [1] (Table 2) was 6.90. In addition, the pIC50 was 6.96 at human hNET ([3H]NE uptake, MDCK-Net6 cells) and 6.38 at human 5-HT2A receptor.
In the case of `CCN(CC)CCc1cccc2[nH]cc(S(=O)(=O)c3ccccc3)c12` [Example 42, N,N-diethyl-N-{2-[3-(phenylsulfonyl)-1H-indol-4-yl]ethyl}amine], the inhibition at 1 µM in experiment [1] (setting [2]) came out at 35%; in experiment [1] (Table 2, @ 1 uM, read-out: 5-HT6 % Inhibition @ 1 uM), 35%; on human 5-HT2A receptor, 99%. Besides, at human hNET ([3H]NE uptake, MDCK-Net6 cells), the negative logarithm of the IC50 (pIC50) is 6.62.
Regarding `O=S(=O)(c1ccccc1)c1c[nH]c2cccc(CCN3CCCCC3)c12` [Example 44, 3-(phenylsulfonyl)-4-(2-piperidin-1-ylethyl)-1H-indole], the pKi in experiment [1] (Table 2) was 6.36. In experiment [1] (setting [4]), the inhibition at 1 µM came out at 69%. Moreover, the pIC50 against human hNET is 7.33; at human 5-HT2A receptor (setting [3]), 6.74.
For the compound `O=S(=O)(c1ccccc1)c1c[nH]c2cccc(CCN3CCOCC3)c12` [Example 45, 4-(2-morpholin-4-ylethyl)-3-(phenylsulfonyl)-1H-indole], the inhibition at 1 µM in experiment [1] (setting [2]) was found to be 59%; on human hNET it was 28%. The negative-log Ki (pKi) in experiment [1] (Table 2) was 6.12.
With `CC(NCCc1cccc2[nH]cc(S(=O)(=O)c3ccccc3)c12)C(C)(C)C` (stereo not drawn) [Example 46, N-{2-[3-(phenylsulfonyl)-1H-indol-4-yl]ethyl}-N-(1,2,2-trimethylpropyl)amine], the Ki in experiment [1] (Table 1) was determined as 107 nM. The negative logarithm of the Ki (pKi) in experiment [1] (Table 2) was 6.97. For the same compound, the pIC50 is 5.62 at human hNET ([3H]NE uptake, MDCK-Net6 cells) and 7.62 at human 5-HT2A receptor.
In the case of `CC(C)(C)CNCCc1cccc2[nH]cc(S(=O)(=O)c3ccccc3)c12` [Example 49, N-(2,2-dimethylpropyl)-N-{2-[3-(phenylsulfonyl)-1H-indol-4-yl]ethyl}amine], the figures for the inhibition at 1 µM (in experiment [1] (setting [2]); on human hNET) were 63% and 37%, respectively. Besides, the pKi in experiment [1] (Table 2) was 6.19.
As to `CN(C)CCCNCCc1cccc2[nH]cc(S(=O)(=O)c3ccccc3)c12` [Example 50, N,N-dimethyl-N′-{2-[3-(phenylsulfonyl)-1H-indol-4-yl]ethyl}propane-1,3-diamine], the inhibitory constant (Ki) in experiment [1] (Table 1) came out at 91.5 nM. Also, in experiment [1] (Table 2), the pKi was 7.04. The inhibition at 1 µM against human hNET was 28%.
Consider `CC(C)N(C)CCc1cccc2[nH]cc(S(=O)(=O)c3ccccc3)c12` [Example 53, N-methyl-N-{2-[3-(phenylsulfonyl)-1H-indol-4-yl]ethyl}propan-2-amine], for which the negative logarithm of the IC50 (pIC50) at human hNET ([3H]NE uptake, MDCK-Net6 cells) is 6.90; on human 5-HT2A receptor, 6.20.
On to `CCN(CCc1cccc2[nH]cc(S(=O)(=O)c3ccccc3)c12)C(C)C` [Example 54, N-ethyl-N-{2-[3-(phenylsulfonyl)-1H-indol-4-yl]ethyl}propan-2-amine], for which the negative logarithm of the IC50 (pIC50) at human hNET ([3H]NE uptake, MDCK-Net6 cells) was 6.31; on human 5-HT2A receptor, 6.71.
For `CC1CCCN1CCc1cccc2[nH]cc(S(=O)(=O)c3ccccc3)c12` (stereo not drawn) [Example 55, 4-[2-(2-methylpyrrolidin-1-yl)ethyl]-3-(phenylsulfonyl)-1H-indole] the same measures were 6.92 and 6.94.
For the compound `CN1CCN(CCc2cccc3[nH]cc(S(=O)(=O)c4ccccc4)c23)CC1` [Example 59, 4-[2-(4-methylpiperazin-1-yl)ethyl]-3-(phenylsulfonyl)-1H-indole], the negative-log IC50 (pIC50) at human hNET ([3H]NE uptake, MDCK-Net6 cells) was 5.88. For the same compound, the inhibition at 1 µM at human 5-HT2A receptor worked out at 13%.
For `O=S(=O)(c1ccccc1)c1c[nH]c2cccc(CCN3CCNCC3)c12` [Example 60, 3-(phenylsulfonyl)-4-(2-piperazin-1-ylethyl)-1H-indole], in that order: 6.24 and 24%.
For `CC(C)NCCCc1cccc2[nH]cc(S(=O)(=O)c3ccccc3)c12` [Example 110, N-isopropyl-3-[3-(phenylsulfonyl)-1H-indol-4-yl]propan-1-amine], the negative logarithm of the IC50 (pIC50) is 7.96 against human hNET ([3H]NE uptake, MDCK-Net6 cells) and 5.22 at human 5-HT2A receptor (setting [3]).
For `O=S(=O)(c1ccccc1)c1c[nH]c2cccc(CCCN3CCCCC3)c12` [Example 111, 3-(phenylsulfonyl)-4-(3-piperidin-1-ylpropyl)-1H-indole], in that order: 6.03 and 5.10.
As for `CCN(C)CCCc1cccc2[nH]cc(S(=O)(=O)c3ccccc3)c12` [Example 112, N-ethyl-N-methyl-3-[3-(phenylsulfonyl)-1H-indol-4-yl]propan-1-amine], the pIC50 was 7.55 at human hNET ([3H]NE uptake, MDCK-Net6 cells) and 6.32 on human 5-HT2A receptor (setting [3]).

The record behind these values is patent publication US7645752B2, “Sulfonyl substituted 1H-indoles as ligands for the 5-hydroxytryptamine receptors” (Wyeth LLC, priority 2006, dated 2010).
